Assay results: US20220142209A1, “METHODS AND COMPOSITIONS FOR IMPROVING THE TASTE OF DIET COLA SODAS AND OTHER BEVERAGES” (priority 2019, published 2022)

Legend:
[1] = adults and children; cited from earlier work
[2] = Informal taste test of additives mixed into DIET COKE; format: in vivo, people
Text: To provide enabling context for some of the embodiments disclosed herein, simple formulations are described here (with more enablement in the Exemplary Embodiments below). Pour into a cup about 7.5 ounces of a DIET COKE® that includes just aspartame. Mix in about one to two teaspoons of ENACO ERC-A20 decocainized liquid coca leaf extract, both liquids at room temperature. […] Adding a bag of sugar (5 grams) results in an even more pleasant taste while providing a cola soda with 80% less sugar. Using glucose instead of sugar (sucrose) produce a fructose-free, low-sugar, cola soda.
(§1) Taste and aroma are not separate sensory experiences. For example, when many people are afflicted with the common cold, and have stuffy noses, they can lose some or all of the taste of foods. This is attributed to the odor sensors in the nose being blocked. Also, when many people eat foods, they can have a time dependent sensory experience, as the (chewed) food travels to the back of the mouth and then some of the aromas enter the back of the nasal cavity, due to retronasal smell (versus orthonasal smell due to aromas entering the front of the nasal cavity, for example, when you sniff a rose). Thus, in many of the embodiments disclosed herein, the term “taste and/or aroma” is used. Also, the Exemplary Embodiments that follows, statements in changes in taste and/or aroma are based on the opinions of a few people. Not all people drinking the embodiments disclosed herein will experience the same degree of improvement in taste and/or aroma.
For the exemplary embodiments that follow, the examples are performed with all liquids at room temperature. Sodas typically taste more pleasant at lower temperatures (sodas retain carbonation better at lower temperatures, which creates a better taste for many people). Any improvements in taste and/or aroma resulting from any of the following embodiments at room temperature are similar, if not more pleasant, at lower temperatures down to freezing. Tastes and/or aromas can also vary due to the use of soda container: glass, plastic, metal or paper. There are many who think that cola sodas taste best when consumed from glass bottles. For many of the exemplary embodiments disclosed herein, Bodum PAVINA® Coffee Mugs, double-wall insulated glass mugs, 8-ounce size, are used.
One embodiment of an improved cola beverage product is understood with the following exemplary method and resulting exemplary article of manufacture. Pour about 7.5 ounces of DIET COKE® (about 220 grams—about 222 milliliters) into a container such as a cup. Mix in about one half teaspoon to two teaspoons (about 2.5 to 10 grams—about 2.5 to 10 milliliters) of coca leaf extract, for example, the ERC-A20 liquid coca extract available from ENACO (Lima, Peru) or its equivalents. […] Any coca leaf extract with similar chemical components (see FIG. 4 and FIG. 11, for example) to ERC-A20 (the version of the extract circa 2018/2019) can be used, and the extracts can be added to other diet sodas such as COKE ZERO® and COKE ZERO SUGAR®.

[3] = Taste test of ethyl benzoate in hot unsweetened cacao drink; format: in vivo, people; details: 5 ml of 24 micrograms per milliliter solution in one cup hot water with about two tablespoons unsweetened cacao powder
Text: as §1
Some of the unpleasant taste of unsweetened cacao can be removed by using ethyl benzoate. In one exemplary embodiment to improve the taste of any brand of unsweetened cacao and/or chocolate made therefrom, prepare one cup of hot water and add about two tablespoons of unsweetened HERSHEY® cacao powder. Mix in 5 milliliters (one teaspoon) of a liquid (e.g., water) solution that has, for example, 24 micrograms per milliliters of ethyl benzoate. […]

OC[C@@H](O)[C@H](O)[C@@H](O)CO [xylitol]
safe amounts [1]: less than 20 grams a day | taste of resulting beverage ([2]; one teaspoon powdered xylitol dissolved in 1.5 teaspoons ERC-A20, added to 220 ml DIET COKE): An improvement in taste is experienced

CC1=CCC(C(C)C)=CC1 [gamma-terpinene]
taste of resulting DIET COKE ([2]; one half teaspoon, 40 micrograms/milliliter, in 220 ml DIET COKE): while more pleasant as seen with adding alpha-terpineol, also has less of a “coca cola” taste

CC1=CCC(C(C)(C)O)CC1 (stereo not drawn) [alpha-terpineol]
experience of drinking modified DIET COKE ([2]; about one teaspoon of 48 micrograms/milliliter water solution in 220 ml DIET COKE): more pleasant

C=CC(C)(O)CCC=C(C)C (stereo not shown) [linalool]
change in unpleasantness ([2]; one teaspoon, 40 micrograms per milliliter, in 220 ml Diet Coke): little-to-no change

O=C([O-])c1ccccc1.[Na+] [sodium benzoate]
Coca-Cola taste ([2]; 1/32nd teaspoon (230 milligrams) in 220 ml DIET COKE): No improvement

CCOC(=O)c1ccccc1 [ethyl benzoate]
pleasantness of resulting beverage [3]: more pleasant | taste and/or aroma versus untreated DIET COKE ([2]; about 5 ml (one teaspoon) of about 24 micrograms per milliliter solution in 7.5 ounces DIET COKE): more pleasant | taste of resulting beverage ([2]; solution of just ethyl benzoate instead of liquid coca leaf extract, about 7.5 ounces DIET COKE): improvement in taste, but lesser of an improvement than with the leaf extract

COC(=O)c1ccccc1 [methyl benzoate]
DIET COKE taste ([2]; about 5 ml of solution of about 24 micrograms per milliliter): taste similar to that of using ethyl benzoate
